Measurements from US20240368605A1, “USE OF SPLICE SWITCHING OLIGONUCLEOTIDES FOR EXON SKIPPING-MEDIATED KNOCKDOWN OF PIM2” (INSTITUT NATIONAL DE LA SANTÉ ET DE LA RECHERCHE MÉDICALE, priority 2021, published 2024).

Experiments:
Type in all cases: cell-based, human
[1] = test system: IRF4, PRDM1, XBPIS, BACH2, BCL6, SPIB, IRF8 and PAX5; test: Transcription factor mRNA relative expression in generated PBs; conditions: SSO-PIM2 present
Description: (§1) FIG. 1. Specific PIM2 inhibition affects the generation of plasmablasts • A. Diagram explaining SSO-PIM2 action. It binds to the second exon of the gene PIM2 leading in a skip of this exon during transcription and finally results to a frame shift and created an early stop-codon during translation. The protein is so a non-functional truncated protein. • B. Activated B cells were treated at D4 with an increasing dose of SSO-PIM2 and SSO-CTL (control condition) and recovered 48 hours later (at D6). PIM2 mRNA residual expression compared to the control condition adjust at 100% (mean±SD, n=3) and agarose gel of PIM2 PCR, showing exon skipping. • C. At D4, activated B cells were treated with SSO-PIM2 and SSO-CTL (control condition) at 2 μM. CD23+ aBC and PB were sorted at D6. PIM2 mRNA relative expression (mean±SD, n=4) (left) and PIM2 protein expression by western blot (middle) and immunofluorescence (right) after PIM2 inhibition. • D-E. Decrease of PB generation after PIM2 inhibition. Cells were treated with SSO-PIM2 at 2 μM (D) or increase dose of the PIM inhibitor AZD1208 (PIMi as indicated, in μM) (E) and their control condition (SSO-CTL and DMSO respectively). The untreated condition is referred as “NT” (=no treatment). Left: Absolute number of PB obtained at D6 after PIM2 inhibition. […] Right: Proportion of PB evaluated at D6 by flow cytometry after treatment with SSO-PIM2 at 2 μM. […]

p21^Cip1/WAF1 = test: CDKN1A gene and p21^Cip1/WAF1 protein expression in PBs
Excerpt: Like p27^Kip1, p21^Cip1/WAF1 is a tight-binding inhibitor of CDKs and inhibits cell cycle entry into S phase (Elledge et al., 1996). Plasmablast commitment leads to a significant increase of the CDKN1A gene, which encodes p21^Cip1/WAF1, and this independently to the expression of TP53 (data not shown). […] We then wondered whether PIM2 could modify p21^Cip1/WAF1 expression. […] To address this scenario, we developed endogenous protein immunoprecipitation (IP) and found in generated PBs and XG21 cell line as well that PIM2, p21^Cip1/WAF1 and HSP90β form a cytoplasmic multiprotein complex (data not shown).

plasmablasts (PB) = test: Generation of plasmablasts at D6 in the in vitro B cell differentiation model (flow cytometry); conditions: SSO at 2 μM added at D4
Description: as §1

Substance: 5′-CCTCATGACGGATACCTGGAGTC-3′ (all phosphorodiamidate morpholino (PMO)) [SSO-PIM2]
- expression of key transcription factors involved in B cell differentiation in generated PBs [1]: not affected
- CDKN1A gene upregulation in PBs (p21^Cip1/WAF1): did not interfere with CDKN1A gene upregulation
- p21^Cip1/WAF1 protein expression and localization (p21^Cip1/WAF1; PBs): decreased dramatically its cytoplasmic expression without nuclear relocalization
- generated PB at D6 (plasmablasts (PB)): severe decrease in generated PB
